Like-named read-outs stand apart in the source and are kept apart here.
What was measured:
HL-60 cells = experiment: Growth of HL-60 cells (IC50); format: cell-based, human; settings: for IC50: value bracketed between tested concentrations
HL-60 leukemic cells = experiment: Nitroblue Tetrazolium (NBT) reduction assay, differentiation of HL-60 leukemic cells; format: cell-based, human; settings: Homo sapiens
Source text: In an aspect of the present disclosure, the compounds of the disclosure can be identified using a novel high-throughput screen that is biased to identify agents that have both a high potency and low toxicity in a myeloid disorder disease model, such as an animal or cell model. In some embodiments, the high-throughput screen measures the differentiation of HL-60 leukemic cells using a quantitative nitroblue tetrazolium (NBT) reduction assay. Screening HL-60 cells, human promyelocytic cells, is advantageous as they have been used extensively as a cell line to study myeloid differentiation. Though promyelocytic cells, HL-60 cells were derived from a patient with acute myeloblastic leukemia with maturation, FAB-M2.
This technique has also been widely exploited in HL-60 cells to analyze myelomonocytic differentiation.
The NBT screen works due to changes in the oxidoreductases during differentiation that lead to increases in rates of NBT reduction. NBT is reduced due to the production of superoxide that is catalyzed by an NADPH oxidase. […] NBT is reduced by superoxide from a soluble yellow compound to insoluble blue formazan granules whose formation can be monitored spectrophotometrically at 560 nm as the unreduced dye has minimal absorbance at this wavelength. A quantitative NBT reduction assay is ideal for this type of screen as it is simple, sensitive, quantitative, requires minimal cells, has been proven to have low well to well variability, and the amount of reduced NBT is proportional to the number of cells reducing the dye as well as the amount reduced by each cell.
To discover novel AML differentiation-inducing compounds a rapid high-throughput screen (HTS) was developed and optimized. The screen was designed to be biased to identify compounds that, unlike the majority of known differentiation-inducing agents, have both high potency and low toxicity. The screen measured the differentiation of HL-60 leukemic cells using a quantitative Nitroblue Tetrazolium (NBT) reduction assay, a test that is used extensively as a measure of functional myelomonocytic differentiation. The basis for the screen is unreduced NBT exists as a yellow soluble dye. Differentiated leukemic cells are capable of producing a respiratory burst that can reduce NBT into a blue insoluble compound that can be measured spectrophotometrically. This forward chemical genetics approach allowed the discovery of novel compounds that can act on targets not previously known to be “drugable.” As only live cells can reduce NBT, the screen is biased in identifying relatively nontoxic compounds.
To perform the screen, duplicate plates of HL-60 cells were cultured at a density of 5×10^4 cells/mL with 10 μM of each compound in 96 well plates for 5 days. To determine the relative capability for a compound to induce differentiation compared to known potent inducers, each plate destined for the NBT reduction assay included wells with 0.1% DMSO (vehicle control) and 1 μM ATRA. This approach eliminates any slight day to day variation in NBT reduction values and allows the discovery of compounds with similar or greater efficacy to ATRA. Differentiation was determined in the 96 well plates by incubating the cells with 1 mg/mL of NBT and 200 ng/mL of PMA as the stimulant for the respiratory burst for 35 minutes at 37° C. The reaction was then stopped with HCl and the formazan solubilized with DMSO. Finally, the reaction mixture was read spectrophotometrically at 560 nm in a plate reader.
The securinine and norsecurinine analogues were tested and evaluated on their abilities to affect differentiation and growth of HL-60 cells (Table 1).

[1] = Homo sapiens, HL-60, HL-60 cells, read-out: HL-60, IC50
[2] = HL-60 cells, value bracketed between tested concentrations, read-out: HL-60, Dif50

Row | Structure (SMILES) | IC50 (HL-60 cells; [1]) [nM] | also measured
1 | COC(OC)[C@H]1CC[C@H]2N1[C@@H]1C=C(I)C3=CC(=O)O[C@@]32C1 [Compound 1] |  | 100% Death (HL-60 cells; HL-60 cells, concentration giving 100% death): 100% Death <2.5
2 | COC(OC)[C@H]1CC[C@H]2N1[C@@H]1C=CC3=CC(=O)O[C@@]32C1 [Compound 2] |  | EC50 (HL-60 leukemic cells; HL-60, read-out: HL-60, Dif50): 3250 to 5000 nM
3 | CCCCC1=C[C@@H]2C[C@@]3(OC(=O)C=C13)[C@H]1CCCCN21 [Compound 4] | 3000 to 4000 | 
4 | CC(C)(C)c1ccc(C2=C[C@@H]3C[C@@]4(OC(=O)C=C24)[C@H]2CCCCN32)cc1 [Compound 5] | 20000 to 30000 | 
5 | O=C1C=C2C(c3cc(C(F)(F)F)cc(C(F)(F)F)c3)=C[C@@H]3C[C@@]2(O1)[C@H]1CCCCN31 [Compound 6] | 15000 to 20000 | 
6 | O=C1C=C2C(c3cc(Br)cc(Br)c3)=C[C@@H]3C[C@@]2(O1)[C@H]1CCCCN31 [Compound 7] | 15000 to 20000 | 
7 | C[N+]12CCCC[C@@H]1[C@]13C[C@H]2C=CC1=CC(=O)O3 (stereo partly drawn) [Compound 8] |  | EC50 (HL-60 leukemic cells; [2]): > 30000 nM
8 | C[N+]12CCCC[C@@H]1[C@]13C[C@H]2C=C(I)C1=CC(=O)O3 (stereo partly drawn) [Compound 9] | 5000 to 7500 | 
9 | O=C1C=C2C(I)=C[C@@H]3C[C@@]2(O1)[C@H]1CCCCN31 [Compound 13] |  | IC50 (HL-60 cells; read-out: HL-60, IC50, HL-60 cells): < 2500 nM
10 | O=C1C=C2C(I)=C[C@@H]3C[C@@]2(O1)[C@H]1CCCCN31 [Compound 14] |  | EC50 (HL-60 leukemic cells; HL-60, read-out: HL-60, Dif50): 500 to 750 nM
11 | CC(C)CC#CC1=C[C@@H]2C[C@@]3(OC(=O)C=C13)[C@H]1CCCCN21 [Compound 16] | 1250 to 2500 | 
12 | O=C1C=C2C(C#CC3CCCC3)=C[C@@H]3C[C@@]2(O1)[C@H]1CCCCN31 [Compound 19] | 310 to 625 | 
13 | CCCCC#CC1=C[C@@H]2C[C@@]3(OC(=O)C=C13)[C@H]1CCCCN21 [Compound 20] | 2500 | 
14 | CC(C)(C)C#CC1=C[C@@H]2C[C@@]3(OC(=O)C=C13)[C@H]1CCCCN21 [Compound 23] | 1250 to 2500 | 
15 | O=C1C=C2C(C#CCC3CCCC3)=C[C@@H]3C[C@@]2(O1)[C@H]1CCCCN31 [Compound 24] | 1250 to 2500 | 
16 | O=C1C=C2C(C#CC3CC3)=C[C@@H]3C[C@@]2(O1)[C@H]1CCCCN31 [Compound 25] | 1250 to 2500 | 
17 | CC(C)[Si](OCC#CC1=C[C@@H]2C[C@@]3(OC(=O)C=C13)[C@H]1CCCCN21)(C(C)C)C(C)C [Compound 27] |  | IC50 (HL-60 cells; Homo sapiens, HL-60, read-out: HL-60, IC50, HL-60 cells): 625 to 1250 nM
18 | O=C1C=C2C(C#Cc3ccc(F)cc3)=C[C@@H]3C[C@@]2(O1)[C@H]1CCCCN31 [Compound 30] | 310 to 625 | 
19 | CC(C)(C)c1ccc(C#CC2=C[C@@H]3C[C@@]4(OC(=O)C=C24)[C@H]2CCCCN32)cc1 [Compound 32] | 1250 | 
20 | O=C1C=C2C(C#CCOc3ccccc3)=C[C@@H]3C[C@@]2(O1)[C@H]1CCCCN31 [Compound 33] | 625 to 1250 | 
21 | O=C1C=C2C(C#CCOCc3ccccc3)=C[C@@H]3C[C@@]2(O1)[C@H]1CCCCN31 [Compound 34] | 1250 to 2500 | 
22 | O=C1C=C2C(C#Cc3cc(F)cc(F)c3)=C[C@@H]3C[C@@]2(O1)[C@H]1CCCCN31 [Compound 37] | 5000 to 10000 | 
23 | Cc1ccccc1C#CC1=C[C@@H]2C[C@@]3(OC(=O)C=C13)[C@H]1CCCCN21 [Compound 38] | 1250 to 2500 | 
24 | CCOC(C#CC1=C[C@@H]2C[C@@]3(OC(=O)C=C13)[C@H]1CCCCN21)OCC [Compound 44] | 2500 to 5000 | 
25 | CC(C)(C)OCC#CC1=C[C@@H]2C[C@@]3(OC(=O)C=C13)[C@H]1CCCCN21 [Compound 45] | 1250 to 2500 | 
26 | CCc1ccc(C#CC2=C[C@@H]3C[C@@]4(OC(=O)C=C24)[C@H]2CCCCN32)cc1 [Compound 49] | 310 to 625 | 
27 | CCCCc1ccc(C#CC2=C[C@@H]3C[C@@]4(OC(=O)C=C24)[C@H]2CCCCN32)cc1 [Compound 50] | 625 to 1250 | 
28 | O=C1C=C2C(C#Cc3ccc(-c4ccccc4)cc3)=C[C@@H]3C[C@@]2(O1)[C@H]1CCCCN31 [Compound 51] | < 70 | 
29 | O=C1C=C2C(C#Cc3cccs3)=C[C@@H]3C[C@@]2(O1)[C@H]1CCCCN31 [Compound 52] | 70 to 156 | 
30 | Nc1ccc(C#CC2=C[C@@H]3C[C@@]4(OC(=O)C=C24)[C@H]2CCCCN32)cc1 [Compound 53] |  | EC50 (HL-60 leukemic cells; [2]): 156 to 310 nM
